Source: patent US20050249805A1, “Compositions and methods for treating hepatitis C virus (HCV) infection” (priority 2003, published 2005)
pIC50: −log10 of the molar value.

What was measured:
carboxylesterase [1] = assay: Hydrolysis of Compound III in human small intestinal microsomes, effect of BNPP; type: in vitro ADME
[2] = molecular target: T1, butyrylcholinesterase (BuChE: EC 3.1.1.8) (Equus caballus, UniProt P81908); assay: Hydrolysis of III by purified butyrylcholinesterase; type: biochemical, equine
T1 construct: butyrylcholine esterase, equine serum (pseudocholinesterase EC 3.1.1.8, Sigma C1057); purchased Sigma C1057; host or cells: equine serum
T1 sequence (P81908 whole entry): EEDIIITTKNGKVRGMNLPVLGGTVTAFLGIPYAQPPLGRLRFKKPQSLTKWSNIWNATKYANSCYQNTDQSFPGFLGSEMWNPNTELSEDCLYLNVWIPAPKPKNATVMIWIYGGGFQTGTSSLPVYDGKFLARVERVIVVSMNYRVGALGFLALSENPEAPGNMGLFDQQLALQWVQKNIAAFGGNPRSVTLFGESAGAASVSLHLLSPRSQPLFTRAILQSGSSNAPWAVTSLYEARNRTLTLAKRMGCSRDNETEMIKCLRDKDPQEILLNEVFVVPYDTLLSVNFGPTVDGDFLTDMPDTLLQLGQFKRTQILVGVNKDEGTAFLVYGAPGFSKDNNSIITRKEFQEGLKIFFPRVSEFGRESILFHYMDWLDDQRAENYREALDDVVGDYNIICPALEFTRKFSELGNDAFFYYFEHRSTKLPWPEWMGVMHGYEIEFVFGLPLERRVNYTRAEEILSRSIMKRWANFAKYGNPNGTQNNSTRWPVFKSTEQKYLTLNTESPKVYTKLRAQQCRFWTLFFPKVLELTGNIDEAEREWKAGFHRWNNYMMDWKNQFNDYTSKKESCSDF
Description: (§1) The following purified enzymes were used for assays: carboxylesterase from porcine liver (EC 3.1.1.1, Sigma E3019); butyrylcholine esterase, equine serum (pseudocholinesterase EC 3.1.1.8, Sigma C1057); and acetylcholine esterase from electrical eel (EC 3.1.1.7, Sigma C2629).
(§2) Purified enzyme preparations (0.2-2.0 units/mL) were incubated 0-30 min at 37° C. in 0.1 M potassium phosphate buffer, 0.1 mM EDTA, pH 7.4 and 0.5 mg/mL of bovine serum albumin. The substrate was delivered in 0.02% DMSO and 0.6% acetonitrile. Incubations were performed for 0-30 min at 37° C., separately for each time point. The reactions were terminated by precipitation with acetonitrile/ethanol/DMSO mixture, followed by filtering and LC/MS/MS analysis. […] Initial rates of substrate disappearance or product appearance were calculated by linear regression of 5-6 separate incubations.

[3] = system: pig liver carboxylesterase (EC 3.1.1.1); assay: Hydrolysis of III by purified pig liver carboxylesterase; type: biochemical, porcine; conditions: enzyme concentration dependent
Description: as §1, §2

plasma blood esterases = assay: Stabilization of III in mouse blood by carboxylesterase inhibitors; type: in vitro ADME
Description: Heparinized fresh mouse blood (1.6 mL) from […] was added to Vacutainer Tubes: Cat # 367587, lot 2079758, approx. 2 mL volume (3 mg NaF+6 mg disodium EDTA/tube) and spiked with III at 20 ng/mL blood, with concentration of NaF in blood of […]. Samples were incubated in duplicate at 37° C. up to 2 h. Control samples were incubated in eppendorf tubes without sodium fluoride. Blood concentrations of III and its aniline metabolite were assayed by LC/MS/MS by procedure described in Example 6.

[4] = mouse, in vivo, po
Description: (§4) Balb/c male mice were predosed intraperitoneally with 100 mg/kg (20 mg/mL) of bis(p-nitrophenyl) phosphate (BNPP) in ethanol/polyethylene glycol (PEG400) 10:40 v/v or the vehicle, one hour before dosing with III at 1 mg/kg (1 mg/mL) by intravenous bolus in PEG400, or at 30 mg/kg (5 mL/kg) orally in TGPS/PEG400/PG/PBS.
(§5) Blood samples were collected into heparinized Microtainer tubes, spiked with 30% BNPP solution in ethanol, 10 μl/mL blood. Livers were snap frozen in liquid nitrogen. Samples were stored at −80° C. until analyzed by LC/MS/MS procedure, as described below.
(§6) The MRM mode of detection was used for LC/MS/MS analysis. Test compounds were extracted from plasma by direct protein precipitation with a mixture of acetonitrile, ethanol and dimethyl sulfoxide (DMSO) (2:1:1 v/v) and internal standard. Following vortexing and centrifugation, 10 μL of the extract was analyzed by LC-MS/MS.
(§7) Liver homogenate (20% volume in DMSO: water) was prepared using a Polytron homogenizer. Test compounds were extracted from 100 μL of the homogenized mixture as described for plasma and analyzed by LC/MS/MS.
(§8) LC/MS/MS was performed on PE-Sciex API3000 triple quadrupole mass spectrometer, using Betasil C8 column (3×50 mm, 3 μm), with mobile phase A: 0.1% formic acid in water, and B: 0.1% formic acid in acetonitrile. Multiple reaction monitoring (MRM) in the positive ionization mode and Analyst 1.1 software was used for quantitation and data acquisition.

[5] = Metabolic stability in human liver microsomes; type: in vitro ADME
Description: (§3) Liver microsomes prepared from human (male and/or female) or Sprague-Dawley rat (female) (Xenotech LLC, Kansas City, CS), were incubated with compound II (FIG. 3) or III (FIG. 4), followed by LC/MS/MS analysis of a parent compound and a primary metabolite aniline. Incubations were carried out at 37° C., at final concentrations of 0.1 M potassium phosphate buffer/0.1 mM EDTA, pH 7.4, 1 μM substrate, 0.5 mg/mL microsomal protein, 0.01% DMSO, 0.3% acetonitrile, in presence or absence of 1 mM NADPH. Reactions were stopped at specified time points with acetonitrile/methanol/DMSO (50:25:25) containing an internal standard.

carboxylesterase [6] = assay: Hydrolysis of Compound III in human colon microsomes, effect of BNPP; type: in vitro ADME
[7] = molecular target: T2, acetylcholinesterase (AchE: EC 3.1.1.7) (Electrophorus electricus, UniProt O42275); assay: Hydrolysis of III by purified acetylcholinesterase; type: biochemical, electrical eel
T2 construct: acetylcholine esterase from electrical eel (EC 3.1.1.7, Sigma C2629); purchased Sigma C2629; host or cells: electric eel
T2 sequence (O42275 24-633): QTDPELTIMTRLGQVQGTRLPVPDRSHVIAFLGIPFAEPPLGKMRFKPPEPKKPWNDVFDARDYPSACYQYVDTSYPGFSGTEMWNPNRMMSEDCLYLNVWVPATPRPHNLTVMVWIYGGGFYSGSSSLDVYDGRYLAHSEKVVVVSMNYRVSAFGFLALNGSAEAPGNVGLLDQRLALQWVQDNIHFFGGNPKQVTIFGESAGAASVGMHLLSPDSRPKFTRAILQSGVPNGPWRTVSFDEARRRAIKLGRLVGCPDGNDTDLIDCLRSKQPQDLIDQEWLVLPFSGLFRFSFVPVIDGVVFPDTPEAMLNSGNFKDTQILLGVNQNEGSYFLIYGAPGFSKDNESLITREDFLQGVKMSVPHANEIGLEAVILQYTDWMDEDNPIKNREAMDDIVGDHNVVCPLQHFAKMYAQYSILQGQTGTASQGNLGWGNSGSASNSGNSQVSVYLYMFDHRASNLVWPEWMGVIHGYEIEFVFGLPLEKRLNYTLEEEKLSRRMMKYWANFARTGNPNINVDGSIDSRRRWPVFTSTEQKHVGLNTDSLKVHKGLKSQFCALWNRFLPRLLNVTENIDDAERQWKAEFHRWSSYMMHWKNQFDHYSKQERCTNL
Description: as §1, §2

[8] = Hydrolysis of III in liver microsomes of several species; type: in vitro ADME, human, monkey, dog, rabbit, rat, mouse; conditions: rates per mg protein vary with species
Description: FIG. 4A and FIG. 4B show the stability of […] when incubated in presence of microsomes prepared from human liver (FIG. 4A) or rat liver (FIG. 4B).

[9] = In vivo metabolite profile of 14C-labeled II in rats; set-up: species or system Sprague Dawley rats; conditions: intravenous administration, HPLC
Description: Following administration of the compound to rats, plasma and liver were analyzed by HPLC for drug related metabolites.
Male Sprague Dawley rats were given either a single 1 mg/kg (1 mL/kg) bolus intravenous dose in 70% polyethylene glycol (PEG) 400/30% saline via a tail vein, or a single 1 mg/kg (2 mL/kg) oral dose in 4% polysorbate 80/96% saline of ^14C-labeled anti-HCV II, with radioactive dose of about 30 μCi per animal.
Groups of rats (n=2/dose route/time point) were sacrificed at specified times from 0 to 3 h after dosing. Heparinized plasma and liver were harvested and stored at −70° C. until analyzed. The plasma was assayed by liquid scintillation counting (LSC) in Beckman LS-6000LL Liquid Scintillation Counter.
Livers were homogenized in deionized water, combusted and analyzed by LSC. Portion of the homogenate was extracted by sonication with acetonitrile, centrifuged, and subjected to radioprofiling of supernatant by the Liquid Chromatography with Accurate Radioisotope Counting (LC-ARC). Agilent Series 1100 with Packard Radiomatic 150 radioactivity detector was used for analysis. Waters Spherisorb ODS1, 5 μm, 250×4.6 mm column was used, with mobile phase A: water/acetic acid/ammonium hydroxide (2000:20:20, v/v/v), B: acetonitrile. The radioactivity of peaks was calculated using ARC Data System software.

[10] = Metabolic stability in rat liver microsomes; type: in vitro ADME, Sprague-Dawley rat; conditions: rat liver microsomes (FIG. 4B)
Description: as §3

carboxylesterase [11] = assay: Effect of enzyme inhibitors on hydrolysis of III in human liver microsomes; type: biochemical; conditions: for effect on hydrolysis of III: PMSF 20-500 uM, Proadifen 5-100 uM; for inhibition of hydrolysis of III: highest concentrations (NaF 500 mM, BNPP 500 uM)
Description: Human male liver microsomes (Xenotech LLC, Kansas City, CS) were incubated with III in presence of increasing concentrations of known inhibitors of carboxylesterase, protease, and cytochrome P450 enzymes, followed by LC/MS/MS analysis of a parent compound and a primary metabolite aniline. […] Incubations were carried out at 37° C., at final concentrations of 0.1 M potassium phosphate buffer/0.1 mM EDTA, pH 7.4, specified concentration of inhibitor, 2 μM substrate, 0.5 mg/mL microsomal protein, 0.1% DMSO, 0.5% acetonitrile, in absence of NADPH. Incubations were started with a substrate, following 10 min preincubation of microsomal reaction mixture with inhibitors at 37° C. Reactions were stopped at specified time points with acetonitrile/methanol/DMSO (50:25:25) containing an internal standard.

carboxylesterase [12] = assay: IC50 of carboxylesterase inhibitor (reduction in metabolic conversion of anti-HCV compound); type: biochemical
Description: The suitability of a carboxylesterase inhibitor may be confirmed by the guidance provided herein and by methods well known in the art. In one embodiment, in vitro systems may be used. For example, body fluids (e.g., blood), tissue homogenates, or microsomal preparations from tissues (e.g., liver, intestine, etc.) are contacted with the anti-HCV compound in presence or absence of varying concentrations of inhibitor. Decrease in substrate concentration and/or accumulation of metabolic product (e.g., aniline metabolite) are measured by techniques that include, by way of example and not limitation, LC/MS/MS, GC/MS and/or HPLC. These initial determinations can provide an IC50 of the carboxylesterase inhibitor sufficient to affect biotransformation of the anti-HCV compounds. Moroever, use of purified carboxylesterase enzymes, cDNA expressed enzymes, cells transfected with cloned carboxylesterase genes, etc., can be used to identify the specific enzymes responsible for the biotransformation.
Generally, an inhibitor plasma concentration of 5 μM or less is a reasonable IC50 for in vivo applications.

[13] = Effect of BNPP pretreatment on exposure of III in mice; conditions: mice pretreated with BNPP vs untreated
Description: as §4, §5, §6, §7, §8

[14] = Human Intestine (pooled 2 subjects), BNPP 50 μM
[15] = Human Intestine (pooled 2 subjects), BNPP 500 μM

SMILES: O=C(Nc1ccnc(-c2cc(-c3c(Cl)cccc3Cl)no2)c1)C(Cl)Cl [Compound III]
- Activity (carboxylesterase [1]; Human Intestine (pooled 2 subjects) microsomes, BNPP 0 μM, substrate 1.8 μM, substrate disappearance): 1516 pmol/min/mg
- hydrolysis of III by purified enzyme [2]: not an efficient substrate
- hydrolysis of III by purified enzyme [3]: efficiently hydrolyzed
- stability of III in blood (plasma blood esterases; absence of NaF): rapid decrease in the levels of compound
- Cmax [4]: increased
- bioavailability (F) [4]: increased
- circulating metabolite [4]: significantly reduced
- plasma exposure (AUC) [4]: increased
- metabolic stability in vitro of III ([5]; human liver microsomes, absence or presence of NADPH): Rapid disappearance of the parent compound
- Activity (carboxylesterase [6]; Subject 1 microsomes, BNPP 0 μM, substrate 1.8 μM, substrate disappearance): 257 pmol/min/mg
- Activity (carboxylesterase [6]; Subject 2 microsomes, BNPP 0 μM, substrate 1.8 μM, substrate disappearance): 192 pmol/min/mg
- hydrolysis of III by purified enzyme [7]: not an efficient substrate
- hydrolysis of III and conversion to aniline metabolite [8]: occurs in microsomes prepared from livers of human, monkey, dog, rabbit, rat, and mouse

SMILES: O=C(Nc1cccc(-c2cc(-c3c(Cl)cccc3Cl)no2)c1)C(Cl)Cl [Compound II]
- metabolite profile in plasma and liver [9]: Aniline is the major product
- stability of II in microsomes [10]: Rapid disappearance of parent compound
- stability of II in microsomes ([5]; human liver microsomes (FIG. 4A)): Rapid disappearance of parent compound

SMILES: O=S(=O)(F)Cc1ccccc1 [PMSF, phenylmethanesulphonyl fluoride]
- effect on hydrolysis of III (carboxylesterase [11]): weak inhibition

SMILES: CCCC(C(=O)OCCN(CC)CC)(c1ccccc1)c1ccccc1 [Proadifen, proadifen]
- effect on hydrolysis of III (carboxylesterase [11]): did not affect hydrolysis

SMILES: O=[N+]([O-])c1ccc(OP(=O)(O)Oc2ccc([N+](=O)[O-])cc2)cc1 [BNPP, bis(p-nitrophenyl) phosphate]
- Activity (carboxylesterase [1]; [14]): 28%
- Inhibition (carboxylesterase [1]; [14]): 72%
- Activity (carboxylesterase [1]; Human Intestine (pooled 2 subjects), BNPP 50 μM, hydrolysis of Compound III 1.8 μM): 432 pmol/min/mg
- Activity (carboxylesterase [1]; [15]): 2.6%
- Inhibition (carboxylesterase [1]; [15]): 97%
- Activity (carboxylesterase [1]; Human Intestine (pooled 2 subjects), BNPP 500 μM, hydrolysis of Compound III 1.8 μM): 39 pmol/min/mg
- pIC50 (carboxylesterase [12]): 4.30 to 5.00
- inhibition of hydrolysis of III (carboxylesterase [11]): Complete inhibition
- levels of parent compound in the liver [13]: significantly increased
- Activity (carboxylesterase [6]; Subject 1, BNPP 50 μM): 75%
- Inhibition (carboxylesterase [6]; Subject 1, BNPP 50 μM): 25%
- Activity (carboxylesterase [6]; Subject 1, BNPP 50 μM, hydrolysis of Compound III 1.8 μM): 192 pmol/min/mg
- Activity (carboxylesterase [6]; Subject 2, BNPP 50 μM): 121%
- Inhibition (carboxylesterase [6]; Subject 2, BNPP 50 μM): 0%
- Activity (carboxylesterase [6]; Subject 2, BNPP 50 μM, hydrolysis of Compound III 1.8 μM): 232 pmol/min/mg

SMILES: [F-].[Na+] [NaF, Sodium fluoride]
- inhibition of hydrolysis of III (carboxylesterase [11]): Complete inhibition
- effect of inhibitor on hydrolysis of III in blood (plasma blood esterases; 50 mM NaF): prevented hydrolysis
